The term Solubility denotes how much of the substance goes into solution per volume.

This note sets out measurements from patent US4419358A, “Isethionic acid salt of 9-cyclohexyl-2-propoxy-9H-purine-6-amine and compositions containing an effective bronchodilating concentration of it” (Mead Johnson & Company, priority 1981, dated 1983).

Holding throughout (type): physicochemical
Data set [1] is described as follows: Water solubility of salts of MJ 13156 (Table 1, Method A or B). The conditions noted are these: for Solubility: room temperature (about 25° C.). As for the experimental part:
More conventional pharmaceutically acceptable acid addition salts of MJ 13156 are not well suited for the present use due to a limited solubility and, in some cases, lack of stability.
^1 Solubility data obtained using one of two methods:
Solubilities of isolated salts determined in standard manner by adding
H2 O to weighed salt samples and directly obtaining solubility data.
Solubilities of salts prepared in situ determined by adding a
moleequivalent of each acid to a 140 mg sample of MJ 13156 and then
diluting with H2 O in increments to 2.5 mg/mL. A second
moleequivalent of acid was added to each sample and allowed to stand
overnight. The precipitates were collected, dried, and weighed to obtain

Data set [2] in a line: Dissociation of salts/solvates in water. As for the experimental part:
(§1) Preparation of the isethionate salt of MJ 13156 is carried out by treating an equivalent of base in ethyl acetate with 2 equivalents of isethionic acid in ethanol-ethyl acetate solution. Chilling the mixture yields the salt which is collected by filtration. The salt can similarly be prepared by using more concentration solutions of both the acid and the base in ethanol.

Data set [3] in a line: Basicity (ability of MJ 13156 to form salts with weak acids). The conditions noted are these: gluconic, lactobionic, acetic, and levulinic acids. As for the experimental part:
as §1

Where [4] appears, read: Method A: H2O added to weighed samples of isolated salts.
Where [5] appears, read: listed as methanesulfonate salt.
The mark [6] stands for this setting: Method B: salts prepared in situ from 140 mg MJ 13156, second moleequivalent of acid added, overnight.

Read-outs that look alike come from different tables or passages of the source.

Regarding `CCCOc1nc(N)c2ncn(C3CCCCC3)c2n1` [hydrochloric], the Solubility in data set [1] (setting [4]) was found to be 1400 µg/mL.

Turning to `CC(=O)CCC(=O)O` [levulinic acid], the “dissociation in water (in words)” value in data set [2] is reported as “dissociated in water to give MJ 13156 base”.

Turning to `CCCOc1nc(N)c2ncn(C3CCCCC3)c2n1` [methanesulfonic], the Solubility in data set [1] (setting [4]) is 8000 µg/mL. Also, the “water solubility (in words)” value in data set [1] (setting [5]) is given as “reasonable water solubility”. Also, the “dissociation in water (in words)” value in data set [2] (setting [5]) is recorded as “dissociates moderately in water”.

Take `CCCOc1nc(N)c2ncn(C3CCCCC3)c2n1` [isethionic, 9-Cyclohexyl-2-propoxy-9H-purine-6-amine 2-Hydroxyethanesulfonate]: the Solubility in data set [1] (setting [4]) is 100000 µg/mL. For the same molecule, the “water solubility (in words)” value in data set [1] (listed as isethionate salt) is listed as “clearly the most soluble of all those prepared”.

With `CCCOc1nc(N)c2ncn(C3CCCCC3)c2n1` [hydrobromic], in data set [1] (setting [6]), the Solubility turned out to be 1600 µg/mL.

As for `CCCOc1nc(N)c2ncn(C3CCCCC3)c2n1` [sulfuric], the Solubility in data set [1] (setting [6]) came to 800 µg/mL.

Consider `CCCOc1nc(N)c2ncn(C3CCCCC3)c2n1` [acetic acid solvate], for which the “dissociation in water (in words)” value in data set [2] is “dissociated in water to give MJ 13156 base”.

With `CCCOc1nc(N)c2ncn(C3CCCCC3)c2n1` [phosphoric], the Solubility in data set [1] (setting [6]) stood at 1300 µg/mL.

Consider `CCCOc1nc(N)c2ncn(C3CCCCC3)c2n1` [MJ 13156, 9-cyclohexyl-2-propoxy-9H-purine-6-amine], for which the “base strength (in words)” value in data set [3] was “too weak a base to form a salt with these acids”.

Regarding `CCCOc1nc(N)c2ncn(C3CCCCC3)c2n1` [nitric], the Solubility in data set [1] (setting [6]) amounted to 2400 µg/mL.
